Data published in patent US20080171729A1, “Use Of A Steroid For Enhancement Of Skin Permeability” (Novartis AG, priority 2004, published 2008).

Test: Skin penetration/permeation assay in static Franz-type diffusion cells, untreated or corticosteroid pre-treated split-thickness skin
Format: in vitro ADME, domestic pigs
Method: Three young, male castrated domestic pigs with body weights of approximately 15 kg are used as skin donors. The animals are obtained from a local breeder and maintained under standardized conditions (22±1°, 55±5% relative humidity, 10 changes of fresh air/hour, 12 hours day/12 hours night cycle). After a settling-in period of 7 days the pigs are treated topically on test areas on the dorsolateral back • with CS solutions in EtOH/propylene glycol (3+7, v/v) as a solvent, and • contra-laterally with solvent alone, twice daily for 5 days. HC (Sigma) at 1.0%, MOM (Sequoia Research Products) at 0.1% and CLO (Sigma) at 0.05% are used as CS. The CS-samples and solvent alone are applied in volumes of 50 μl to skin areas of 3.5×6.5 cm each. All three CS and solvent alone are applied to all animals. 16 hours after the last application the animals are killed and the treated skin samples are dissected. Full-thickness skin samples are dissected from vehicle- and CS-treated sites and cut into 0.4 mm split-thickness skin samples with a dermatome (Aesculap®). The samples include the epidermal layers and the superficial part of the dermis but no deep dermal layers and no subcutaneous fat. […] Schmook F B, Stütz A, Reinhardt J, Skin Pharmacol 1993; 6: 116-124. PBS/EtOH 3:1 is used as receptor phase. All experiments are performed at 32° in triplicates for 48 hours. Test compounds are applied to the epidermal side of the skin samples in their marketed formulations, i.e. Elidel® 1% cream (pimecrolimus) and Protopic® 0.1% ointment (tacrolimus), each in amounts of 300 mg. Samples of 100 μl are taken from the receptor phase at 5 time points during the 48-hours experiment and replaced by fresh receptor fluid. After addition of an internal standard (ASD732, see e.g. EP569337) the samples are directly analyzed by RPLC using MS-based detection. […] Specimens from the stripped skin are taken with a biopsy punch, weighed and then homogenized in 0.1 M sodium phosphate buffer, pH 7. Following addition of an internal standard (ASD732) and buffer of pH 10 to the homogenates, extraction is performed with tert-butyl methylether. Solvent from each extract obtained is evaporated, each residue obtained is redissolved and subjected to analysis by RPLC using MS-based detection. Receptor fluid samples are analyzed by RP-HPLC with MS detection in ESI positive mode (LC-MS/MS analysis). The MS/MS mode is used to increase selectivity. LC-MS/MS analysis is carried out with an Agilent 1100 Series Capillary LC System coupled to a Finnigan LCQ mass spectrometer. A Phenomenex Luna C18(2) column (3 μm, 100×2 mm) equipped with a precolumn is used and eluted isocratically with a flow rate of 100 μl/minute at 60°. The effluent is delivered unsplit to the ESI ion-source. Under the chromatographic conditions used, all compounds tested yield a strong sodium adduct. For MS/MS parent ions are selected. The quantification of the parent ions is based on the area ratio of the fragment ions to the fragment ion of the internal standard.

[1] = pre-treated skin compared with untreated skin

## CC[C@@H]1/C=C(\C)C[C@H](C)C[C@H](OC)[C@H]2O[C@@](O)(C(=O)C(=O)N3CCCC[C@H]3C(=O)O[C@H](/C(C)=C/[C@@H]3CC[C@H](Cl)[C@H](OC)C3)[C@H](C)[C@@H](O)CC1=O)[C@H](C)C[C@@H]2OC [pimecrolimus]
CLO pre-treatment compared with untreated skin
  permeation rate increased by factor: 4.1
HC-pre-treatment compared with untreated skin
  permeation rate increased by factor: 3.8
MOM pre-treatment compared with untreated skin
  permeation rate increased by factor: 2.9
[1]
  skin penetration (skin concentration) enhanced: at least 10%

## C=CC[C@@H]1/C=C(\C)C[C@H](C)C[C@H](OC)[C@H]2O[C@@](O)(C(=O)C(=O)N3CCCC[C@H]3C(=O)O[C@H](/C(C)=C/[C@@H]3CC[C@H](O)[C@H](OC)C3)[C@H](C)[C@@H](O)CC1=O)[C@H](C)C[C@@H]2OC [tacrolimus]
CLO-pretreated skin
  permeation rate of tacrolimus in comparison with pimecrolimus, times higher: 3.5
HC-pre-treated skin
  permeation rate of tacrolimus in comparison with pimecrolimus, times higher: 5.9
MOM-pre-treated skin
  permeation rate of tacrolimus in comparison with pimecrolimus, times higher: 7.1
Corticosteroid pretreated samples (range over HC, MOM, CLO) compared with untreated skin
  permeation rate increased by factors: 1.3-1.9
[1]
  skin penetration (skin concentration) enhanced, in words: not significantly
Untreated skin
  permeation rate of tacrolimus in comparison with pimecrolimus, times higher: 11.2
